Assays:
[1] = target: RAC-alpha serine/threonine-protein kinase (Homo sapiens, UniProt P31749); settings: at 10 µM
[2] = test system: Tyrosine-protein kinase ABL1 (Homo sapiens), P00519 [H396P]; test: Selectivity interaction (KinomeScan (DiscoverX)) EUB0001079a ABL1; settings: at 1 µM
[3] = target: T1, Serine/threonine-protein kinase Nek8 (Homo sapiens) (UniProt Q86SG6); test: Selectivity interaction (Kinase panel (KiNativ target engagement assay in Jurkat cells)) EUB0001635a NEK8; assay type: cell-based; settings: at 1 µM
T1 sequence (whole entry): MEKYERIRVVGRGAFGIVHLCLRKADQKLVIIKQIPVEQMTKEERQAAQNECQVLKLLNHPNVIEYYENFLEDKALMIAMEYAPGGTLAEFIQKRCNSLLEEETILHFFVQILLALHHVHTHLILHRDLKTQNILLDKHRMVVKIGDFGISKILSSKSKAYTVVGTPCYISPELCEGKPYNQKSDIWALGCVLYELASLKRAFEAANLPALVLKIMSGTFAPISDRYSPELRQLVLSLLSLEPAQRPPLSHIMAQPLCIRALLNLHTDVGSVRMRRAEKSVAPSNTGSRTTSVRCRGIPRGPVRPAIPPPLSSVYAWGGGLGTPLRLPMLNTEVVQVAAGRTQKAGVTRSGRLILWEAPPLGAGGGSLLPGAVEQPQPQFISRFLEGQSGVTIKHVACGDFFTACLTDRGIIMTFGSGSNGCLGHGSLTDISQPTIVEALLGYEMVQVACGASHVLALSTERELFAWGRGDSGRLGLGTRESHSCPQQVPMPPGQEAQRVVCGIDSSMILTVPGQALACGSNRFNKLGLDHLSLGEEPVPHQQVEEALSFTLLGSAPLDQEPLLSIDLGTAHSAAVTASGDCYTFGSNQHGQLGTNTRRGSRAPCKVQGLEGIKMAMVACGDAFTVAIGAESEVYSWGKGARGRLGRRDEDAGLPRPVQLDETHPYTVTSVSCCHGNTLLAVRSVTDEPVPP

[4] = target: T2, Serine/threonine-protein kinase Chk1 (Homo sapiens) (UniProt O14757); test: Selectivity interaction (Kinase panel (KiNativ target engagement assay in Jurkat cells)) EUB0001635a CHEK1; assay type: cell-based; settings: at 1 µM
T2 sequence (whole entry): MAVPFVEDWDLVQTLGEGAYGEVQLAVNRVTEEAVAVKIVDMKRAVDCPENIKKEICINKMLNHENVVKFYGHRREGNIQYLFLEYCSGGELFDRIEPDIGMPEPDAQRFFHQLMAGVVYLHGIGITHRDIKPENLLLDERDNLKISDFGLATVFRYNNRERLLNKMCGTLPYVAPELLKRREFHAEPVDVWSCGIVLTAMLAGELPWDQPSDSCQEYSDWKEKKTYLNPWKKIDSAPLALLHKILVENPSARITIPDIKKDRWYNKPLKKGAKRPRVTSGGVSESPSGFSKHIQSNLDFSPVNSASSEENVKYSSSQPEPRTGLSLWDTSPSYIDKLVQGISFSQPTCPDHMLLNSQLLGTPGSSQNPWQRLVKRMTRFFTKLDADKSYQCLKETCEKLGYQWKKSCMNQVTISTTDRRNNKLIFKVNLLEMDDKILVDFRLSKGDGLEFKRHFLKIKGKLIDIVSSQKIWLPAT

[5] = target: Proto-oncogene tyrosine-protein kinase ROS (Homo sapiens) (UniProt P08922); test: Selectivity interaction (Millipore kinase profiler) EUB0000124b ROS1; settings: at 10 µM
Chain of Proto-oncogene tyrosine-protein kinase ROS (Homo sapiens) (P08922 whole entry): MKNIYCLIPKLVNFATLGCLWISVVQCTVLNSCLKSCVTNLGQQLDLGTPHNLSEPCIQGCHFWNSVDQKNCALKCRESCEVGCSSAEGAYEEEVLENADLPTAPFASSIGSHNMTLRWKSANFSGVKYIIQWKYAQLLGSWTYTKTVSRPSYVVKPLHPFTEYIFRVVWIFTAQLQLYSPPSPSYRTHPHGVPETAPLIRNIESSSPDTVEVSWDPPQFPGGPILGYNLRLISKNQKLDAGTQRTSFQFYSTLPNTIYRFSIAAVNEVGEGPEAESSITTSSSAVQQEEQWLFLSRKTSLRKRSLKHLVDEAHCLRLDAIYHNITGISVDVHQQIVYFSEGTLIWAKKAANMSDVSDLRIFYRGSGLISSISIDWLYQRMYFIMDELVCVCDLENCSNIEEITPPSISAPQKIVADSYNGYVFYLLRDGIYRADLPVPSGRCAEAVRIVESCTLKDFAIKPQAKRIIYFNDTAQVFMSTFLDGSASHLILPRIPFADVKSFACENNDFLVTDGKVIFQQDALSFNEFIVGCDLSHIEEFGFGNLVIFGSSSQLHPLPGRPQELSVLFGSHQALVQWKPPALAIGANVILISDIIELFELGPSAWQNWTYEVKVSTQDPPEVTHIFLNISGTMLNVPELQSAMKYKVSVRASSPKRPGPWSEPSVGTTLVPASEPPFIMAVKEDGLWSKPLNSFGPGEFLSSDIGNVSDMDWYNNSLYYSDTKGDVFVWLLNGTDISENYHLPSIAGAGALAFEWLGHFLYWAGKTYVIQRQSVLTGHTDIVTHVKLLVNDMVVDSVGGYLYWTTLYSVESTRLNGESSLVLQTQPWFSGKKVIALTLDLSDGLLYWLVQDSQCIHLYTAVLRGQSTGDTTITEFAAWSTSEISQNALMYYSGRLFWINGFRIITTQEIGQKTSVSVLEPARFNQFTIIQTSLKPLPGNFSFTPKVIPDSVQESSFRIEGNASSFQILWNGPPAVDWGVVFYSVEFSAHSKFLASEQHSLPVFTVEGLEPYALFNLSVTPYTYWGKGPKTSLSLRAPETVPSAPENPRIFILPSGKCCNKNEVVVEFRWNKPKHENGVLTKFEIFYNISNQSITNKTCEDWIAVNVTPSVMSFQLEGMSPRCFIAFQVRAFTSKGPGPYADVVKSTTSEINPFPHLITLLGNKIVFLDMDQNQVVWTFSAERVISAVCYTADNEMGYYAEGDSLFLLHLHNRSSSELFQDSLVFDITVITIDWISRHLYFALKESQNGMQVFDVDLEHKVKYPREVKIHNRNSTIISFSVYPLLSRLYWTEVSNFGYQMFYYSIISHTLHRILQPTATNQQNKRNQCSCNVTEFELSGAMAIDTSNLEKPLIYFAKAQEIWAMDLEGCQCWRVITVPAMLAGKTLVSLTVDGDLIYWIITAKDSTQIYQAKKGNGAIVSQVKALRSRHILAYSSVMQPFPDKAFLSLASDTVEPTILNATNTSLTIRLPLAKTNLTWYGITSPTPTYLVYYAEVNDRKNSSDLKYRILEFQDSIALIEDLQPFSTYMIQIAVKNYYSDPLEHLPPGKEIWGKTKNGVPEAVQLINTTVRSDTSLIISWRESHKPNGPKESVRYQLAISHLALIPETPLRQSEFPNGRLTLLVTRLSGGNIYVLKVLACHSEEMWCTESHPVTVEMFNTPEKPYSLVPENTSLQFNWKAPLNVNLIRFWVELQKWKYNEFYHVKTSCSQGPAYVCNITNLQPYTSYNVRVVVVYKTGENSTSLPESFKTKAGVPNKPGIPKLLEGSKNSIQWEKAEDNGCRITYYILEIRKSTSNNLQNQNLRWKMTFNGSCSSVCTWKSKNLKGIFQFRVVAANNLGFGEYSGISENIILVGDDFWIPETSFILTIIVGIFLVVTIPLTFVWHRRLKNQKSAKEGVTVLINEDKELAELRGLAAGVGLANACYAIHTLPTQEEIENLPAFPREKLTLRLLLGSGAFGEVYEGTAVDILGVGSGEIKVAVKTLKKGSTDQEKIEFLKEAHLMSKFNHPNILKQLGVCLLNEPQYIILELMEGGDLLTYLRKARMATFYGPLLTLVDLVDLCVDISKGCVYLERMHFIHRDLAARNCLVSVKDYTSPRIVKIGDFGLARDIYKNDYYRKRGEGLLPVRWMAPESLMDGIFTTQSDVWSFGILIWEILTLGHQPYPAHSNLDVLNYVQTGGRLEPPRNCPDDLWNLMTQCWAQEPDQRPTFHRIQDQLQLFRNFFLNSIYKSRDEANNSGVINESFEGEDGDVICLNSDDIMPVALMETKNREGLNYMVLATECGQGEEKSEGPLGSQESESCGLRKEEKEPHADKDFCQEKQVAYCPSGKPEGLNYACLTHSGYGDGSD

[6] = target: Tyrosine-protein kinase JAK1 (Homo sapiens, UniProt P23458); settings: at 10 µM
[7] = target: Interferon-induced, double-stranded RNA-activated protein kinase (Homo sapiens) (UniProt P19525); test: Selectivity interaction (ActivX KiNativ screen (kinase selectivity in THP-1 cell lysates)) EUB0000639a EIF2AK2; assay type: subcellular; settings: lysate, at 0.04 µM
Chain of Interferon-induced, double-stranded RNA-activated protein kinase (Homo sapiens) (P19525 whole entry): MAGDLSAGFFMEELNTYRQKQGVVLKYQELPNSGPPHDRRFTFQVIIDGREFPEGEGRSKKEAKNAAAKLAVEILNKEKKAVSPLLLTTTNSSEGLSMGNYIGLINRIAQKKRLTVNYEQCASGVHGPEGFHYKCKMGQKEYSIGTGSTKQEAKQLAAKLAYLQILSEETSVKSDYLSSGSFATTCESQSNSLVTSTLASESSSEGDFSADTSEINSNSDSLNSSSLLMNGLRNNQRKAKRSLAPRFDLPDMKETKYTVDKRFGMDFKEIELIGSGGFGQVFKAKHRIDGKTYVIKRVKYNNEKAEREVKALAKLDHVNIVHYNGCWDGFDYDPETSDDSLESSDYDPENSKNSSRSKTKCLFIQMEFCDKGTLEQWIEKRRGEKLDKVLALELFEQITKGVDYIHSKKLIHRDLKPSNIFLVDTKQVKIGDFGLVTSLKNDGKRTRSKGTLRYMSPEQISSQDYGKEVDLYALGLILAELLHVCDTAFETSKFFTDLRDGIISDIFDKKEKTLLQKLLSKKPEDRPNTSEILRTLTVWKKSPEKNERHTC

[8] = test system: Epidermal growth factor receptor (Homo sapiens), P00533 [UNDEFINED MUTATION]; test: Selectivity interaction (KinomeScan (DiscoverX)) EUB0001049a EGFR; settings: at 1 µM
Chain of Epidermal growth factor receptor (Homo sapiens), P00533 [UNDEFINED MUTATION] (P00533 whole entry, looked up, change not shown): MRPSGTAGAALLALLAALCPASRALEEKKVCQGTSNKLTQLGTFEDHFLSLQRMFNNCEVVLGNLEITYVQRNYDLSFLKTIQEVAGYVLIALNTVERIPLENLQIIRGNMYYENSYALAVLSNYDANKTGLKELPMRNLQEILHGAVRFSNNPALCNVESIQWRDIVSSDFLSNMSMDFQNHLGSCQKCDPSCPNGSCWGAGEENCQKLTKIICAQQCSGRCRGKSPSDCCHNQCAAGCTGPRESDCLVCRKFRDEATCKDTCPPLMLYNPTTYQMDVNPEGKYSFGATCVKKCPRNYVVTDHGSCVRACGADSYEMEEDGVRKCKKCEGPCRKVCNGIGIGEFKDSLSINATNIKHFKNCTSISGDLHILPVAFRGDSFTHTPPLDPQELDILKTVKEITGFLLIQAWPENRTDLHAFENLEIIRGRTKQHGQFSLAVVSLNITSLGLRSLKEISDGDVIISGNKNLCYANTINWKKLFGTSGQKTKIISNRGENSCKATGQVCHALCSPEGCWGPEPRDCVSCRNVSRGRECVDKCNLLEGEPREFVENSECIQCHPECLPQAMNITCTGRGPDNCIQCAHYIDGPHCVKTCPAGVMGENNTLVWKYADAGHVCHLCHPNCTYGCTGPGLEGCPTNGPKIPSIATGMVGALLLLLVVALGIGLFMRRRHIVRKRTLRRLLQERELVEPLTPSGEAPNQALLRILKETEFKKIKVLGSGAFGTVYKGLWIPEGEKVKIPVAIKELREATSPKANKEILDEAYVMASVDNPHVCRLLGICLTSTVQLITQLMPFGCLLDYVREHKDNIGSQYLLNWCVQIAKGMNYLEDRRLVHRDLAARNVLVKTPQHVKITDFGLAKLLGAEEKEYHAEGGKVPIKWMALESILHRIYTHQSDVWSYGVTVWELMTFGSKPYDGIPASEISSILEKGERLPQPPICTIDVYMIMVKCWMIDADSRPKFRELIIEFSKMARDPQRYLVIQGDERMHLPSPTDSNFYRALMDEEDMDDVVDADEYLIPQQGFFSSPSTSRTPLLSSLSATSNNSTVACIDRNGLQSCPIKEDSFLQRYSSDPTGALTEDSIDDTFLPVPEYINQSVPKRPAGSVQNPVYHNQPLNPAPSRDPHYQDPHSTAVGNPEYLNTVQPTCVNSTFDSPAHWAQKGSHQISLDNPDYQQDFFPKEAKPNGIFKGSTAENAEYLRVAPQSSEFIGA

[9] = target: Histone-lysine N-methyltransferase KMT5C (Homo sapiens) (UniProt Q86Y97); test: Selectivity interaction (Methyltransferase screen (radiometric assays, panel of 8 PRMTs, 21 protein lysine methyltransferases, 3 DNA methyltransferases, and one RNA methyltransferase)) EUB0000271b SUV420H2
Chain of Histone-lysine N-methyltransferase KMT5C (Homo sapiens) (Q86Y97 whole entry, looked up): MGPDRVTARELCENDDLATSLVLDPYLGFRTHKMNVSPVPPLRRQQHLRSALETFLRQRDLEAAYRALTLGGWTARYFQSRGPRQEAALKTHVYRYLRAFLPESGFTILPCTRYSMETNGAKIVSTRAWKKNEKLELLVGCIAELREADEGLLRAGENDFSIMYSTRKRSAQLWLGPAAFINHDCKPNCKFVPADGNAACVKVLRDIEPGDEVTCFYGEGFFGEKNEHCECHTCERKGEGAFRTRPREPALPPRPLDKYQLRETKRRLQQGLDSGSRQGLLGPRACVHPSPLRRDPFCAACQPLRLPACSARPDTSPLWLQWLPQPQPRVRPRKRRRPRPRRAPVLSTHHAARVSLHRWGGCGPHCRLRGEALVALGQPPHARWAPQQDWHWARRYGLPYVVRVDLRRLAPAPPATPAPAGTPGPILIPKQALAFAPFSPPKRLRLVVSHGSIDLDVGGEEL

[10] = target: Interferon-induced, double-stranded RNA-activated protein kinase (Homo sapiens) (UniProt P19525); test: Selectivity interaction (KinomeScan (DiscoverX)) EUB0000045b EIF2AK2
[11] = target: T3, Tyrosine-protein kinase receptor TYRO3 (Homo sapiens) (UniProt Q06418); test: Selectivity interaction (KinomeScan (DiscoverX)) EUB0000618a TYRO3; settings: at 10 µM
T3 sequence (whole entry): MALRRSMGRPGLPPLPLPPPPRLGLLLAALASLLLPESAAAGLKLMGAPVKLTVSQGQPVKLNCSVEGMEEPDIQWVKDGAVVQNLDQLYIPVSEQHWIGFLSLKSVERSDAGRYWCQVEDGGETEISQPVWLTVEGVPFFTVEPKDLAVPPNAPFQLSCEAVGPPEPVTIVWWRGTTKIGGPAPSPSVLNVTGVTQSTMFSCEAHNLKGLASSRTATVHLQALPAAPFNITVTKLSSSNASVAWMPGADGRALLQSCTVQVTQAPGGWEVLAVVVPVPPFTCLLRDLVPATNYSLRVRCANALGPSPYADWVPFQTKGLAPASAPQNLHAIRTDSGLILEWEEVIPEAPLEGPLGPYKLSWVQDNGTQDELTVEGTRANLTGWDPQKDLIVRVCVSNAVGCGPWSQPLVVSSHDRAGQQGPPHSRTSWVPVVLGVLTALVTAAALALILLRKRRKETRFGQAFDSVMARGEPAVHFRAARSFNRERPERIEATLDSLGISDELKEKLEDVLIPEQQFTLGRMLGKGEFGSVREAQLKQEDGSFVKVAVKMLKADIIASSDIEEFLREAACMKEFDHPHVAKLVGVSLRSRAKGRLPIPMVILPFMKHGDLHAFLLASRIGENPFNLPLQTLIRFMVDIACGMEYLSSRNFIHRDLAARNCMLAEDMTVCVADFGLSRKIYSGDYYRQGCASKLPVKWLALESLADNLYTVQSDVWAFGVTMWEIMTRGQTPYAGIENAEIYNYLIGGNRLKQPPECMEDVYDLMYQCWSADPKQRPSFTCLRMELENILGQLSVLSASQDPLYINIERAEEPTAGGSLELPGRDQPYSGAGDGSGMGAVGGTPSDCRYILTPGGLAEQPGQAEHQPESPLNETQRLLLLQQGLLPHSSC

Chain of RAC-alpha serine/threonine-protein kinase (P31749 whole entry): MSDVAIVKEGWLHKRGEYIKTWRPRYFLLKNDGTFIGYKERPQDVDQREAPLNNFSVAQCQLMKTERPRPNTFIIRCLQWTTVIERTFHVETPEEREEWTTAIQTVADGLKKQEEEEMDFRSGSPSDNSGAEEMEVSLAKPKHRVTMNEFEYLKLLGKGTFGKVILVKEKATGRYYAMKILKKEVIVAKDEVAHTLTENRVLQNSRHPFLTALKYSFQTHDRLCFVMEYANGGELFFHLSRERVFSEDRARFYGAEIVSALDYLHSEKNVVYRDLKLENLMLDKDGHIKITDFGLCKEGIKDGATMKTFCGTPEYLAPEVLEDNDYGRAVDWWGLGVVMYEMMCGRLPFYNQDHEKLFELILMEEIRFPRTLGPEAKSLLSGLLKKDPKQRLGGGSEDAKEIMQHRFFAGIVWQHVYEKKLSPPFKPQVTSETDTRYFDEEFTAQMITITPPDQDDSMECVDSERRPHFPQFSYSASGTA

SMILES: CCN(CC)CCCCNc1ncc2cc(-c3cc(OC)cc(OC)c3)c(NC(=O)NC(C)(C)C)nc2n1
- % of control [1]: 100%

SMILES: Nc1cnc(N2CCc3cc(S(=O)(=O)Nc4c(F)cc(Cl)cc4F)cc(N4CCCC4=O)c32)nc1 [TP-020n]
- % of control [2]: 86%

SMILES: C=CC(=O)Nc1ccc(C(=O)Nc2[nH]nc3c2CN(C(=O)N[C@H](CN(C)C)c2ccccc2)C3(C)C)cc1
- % of engagement [3]: -10.5%
- % of engagement ([4]; Selectivity number of off-targets 0.0, Selectivity number of targets 233.0, Source Knowledge https://www.sciencedirect.com/science/article/pii/S2451945619300674?via%3Dihub): 5.4%
- % of engagement [4]: 16.4%

SMILES: CC(=O)Nc1cccc(-n2c(=O)n(C3CC3)c(=O)c3c(Nc4ccc(I)cc4F)n(C)c(=O)c(C)c32)c1
- % of control [5]: 107%

SMILES: Cc1cc([C@@H](C)Nc2ccccc2C(=O)O)c2nc(N3CCOCC3)cc(=O)n2c1 [AZD-6482]
- % of control [6]: 100%

SMILES: CC[C@@H]1[C@H](F)C(=O)N[C@@H]1COc1nccc2cc(C(N)=O)c(OC)cc12 [ZIMLOVISERTIB]
- % of inhibition [7]: 3.1%

SMILES: COc1cc(Nc2nc(C)cc(-c3cnn4nc(OC)ccc34)n2)cc(C(F)(F)F)c1
- % of control [8]: 83%

SMILES: Cc1cc(C)cc([C@@H]2c3cc(C)ccc3NC(=O)CN2C(=O)c2ccc(Br)s2)c1
- % of activity ([9]; at 1 µM): 102%
- % of activity ([9]; at 10 µM): 102%

SMILES: C=CC(=O)Nc1cc(-n2c(=O)ccc3cnc4ccc(-c5ccc(NS(C)(=O)=O)cc5)cc4c32)ccc1C
- % of control ([10]; at 1 µM): 100%
- % of control ([10]; at 10 µM): 71%

SMILES: O[C@H]1CC[C@H](Nc2ncc3nc(Nc4c(F)cc(F)cc4F)n([C@H]4CCOC4)c3n2)CC1
- % of control [11]: 100%
